The target in this experiment is T1, NOD2 (Homo sapiens, UniProt Q9HC29).
T1 construct: host or cells: HEK-Blue NOD2 cells (HEK293-derived)
Nature of the experiment: HEK-Blue NOD2 cell line reporter assay (NF-κB-inducible SEAP). The experiment is classed as cell-based. To be noted: HEK-Blue NOD2 cells; for NOD2 activity at 2 μM (fold increase): NF-κB transcriptional (SEAP) activity relative to 0.1% DMSO; for NOD2 activation (in words): compound alone. How it is done: To determine the NOD2 agonistic potential of the synthesized desmuramylpeptides at the cellular level, we used the validated and commercially available HEK-Blue NOD2 cell line reporter assay. HEK-Blue NOD2 cells were first treated for 18 h with MDP, 1, or the novel desmuramylpeptides at 2 μM. The NF-κB transcriptional activity measured was normalized to that of the vehicle treated (0.1% DMSO) control HEK-Blue NOD2 cells.
HEK-Blue NOD2 and NOD1 cell line reporter assays are derived from HEK293 cells by cotransfection of the hNOD2 or hNOD1 genes, respectively, and an NF-κB-inducible secreted embryonic alkaline phosphatase (SEAP) reporter gene. Following activation of NOD2 or NOD1, the resulting NF-κB induces production of SEAP, the levels of which can be quantified colorimetrically. […] After 18 h of incubation (37 °C, 5% CO2), secreted embryonic alkaline phosphatase (SEAP) activity was determined spectrophotometrically as absorbance at 630 nm (BioTek Synergy microplate reader; Winooski, VT, U.S.A.). EC50 values were calculated using Prism software (version 9; GraphPad Software, CA, U.S.A.). For determination of specificity, HEK-Blue NOD2 cells (2.5 × 10^5 cells/mL) were first pretreated for 1 h with a 10 μM NOD2 antagonist, before the addition of the compounds (2 μM), with incubation for 18 h. SEAP activity in the supernatants was determined as above. The experiments were run in duplicate and repeated as at least two independent biological replicates.
(In general: Reporter assays use an easily measured gene product as a stand-in for the process of interest.)

Where [1] appears, read: 18 h, 7 or 8 concentrations 1 nM to 20 μM, mean ± SEM.

Each structure is given as a SMILES string. Values joined by “and” are separate entries in the source; they are usually repeats but may differ in a detail not shown here. Equal entries are not always repeated.

T1 sequence (Q9HC29 whole entry): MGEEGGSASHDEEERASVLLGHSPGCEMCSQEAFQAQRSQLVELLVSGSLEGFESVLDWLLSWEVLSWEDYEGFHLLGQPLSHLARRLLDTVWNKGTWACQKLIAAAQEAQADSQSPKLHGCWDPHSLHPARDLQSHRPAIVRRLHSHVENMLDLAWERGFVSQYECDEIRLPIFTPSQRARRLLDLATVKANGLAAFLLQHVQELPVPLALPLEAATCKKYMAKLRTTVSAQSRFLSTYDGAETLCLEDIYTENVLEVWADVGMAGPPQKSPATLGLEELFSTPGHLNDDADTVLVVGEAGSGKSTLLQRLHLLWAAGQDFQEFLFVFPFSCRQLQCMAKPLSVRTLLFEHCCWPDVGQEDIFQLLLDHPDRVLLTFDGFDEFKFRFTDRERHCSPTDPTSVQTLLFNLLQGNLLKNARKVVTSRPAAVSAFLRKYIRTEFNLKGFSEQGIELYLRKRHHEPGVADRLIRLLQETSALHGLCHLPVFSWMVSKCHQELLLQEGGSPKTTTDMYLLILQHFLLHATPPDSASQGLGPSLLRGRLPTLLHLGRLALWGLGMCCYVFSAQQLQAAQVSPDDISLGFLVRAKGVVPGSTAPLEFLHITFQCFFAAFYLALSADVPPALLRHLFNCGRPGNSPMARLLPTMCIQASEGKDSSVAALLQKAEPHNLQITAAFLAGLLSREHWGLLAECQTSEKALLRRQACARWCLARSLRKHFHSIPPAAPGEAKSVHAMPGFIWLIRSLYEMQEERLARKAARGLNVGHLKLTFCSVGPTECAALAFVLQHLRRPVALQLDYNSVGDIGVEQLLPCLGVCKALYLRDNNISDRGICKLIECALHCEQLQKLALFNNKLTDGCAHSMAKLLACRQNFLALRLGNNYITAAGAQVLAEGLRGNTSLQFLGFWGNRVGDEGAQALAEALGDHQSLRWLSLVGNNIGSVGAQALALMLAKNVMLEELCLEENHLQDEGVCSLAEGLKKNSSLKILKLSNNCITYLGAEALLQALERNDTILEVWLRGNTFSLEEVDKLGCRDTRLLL

For the compound `CONC(=O)CC[C@@H](NC(=O)[C@@H](NC(=O)CNC(=O)/C=C/c1ccc(O)c(OC)c1)C(C)C)C(=O)OC(C)(C)C` [Compound 60, tert-Butyl N^2-((E)-3-(4-Hydroxy-3-methoxyphenyl)acryloyl)glycyl-L-valyl-N^5-methoxy-D-glutaminate], the “NOD2 activity at 2 μM (fold increase)” value (18 h, mean ± SEM) stood at 1.32 ± 0.02 fold increase. Same read-out and setting: with `COc1cc(/C=C/C(=O)NCC(=O)N[C@H](C(=O)N[C@H](CCC(=O)N(C)OC)C(=O)OC(C)(C)C)C(C)C)ccc1O` [Compound 61, tert-Butyl N^2-((E)-3-(4-Hydroxy-3-methoxyphenyl)acryloyl)glycyl-L-valyl-N^5-methoxy-N^5-methyl-D-glutaminate] the figure was 1.33 ± 0.03 fold increase; with `COc1cc(/C=C/C(=O)NCC(=O)N[C@H](C(=O)N[C@H](CCC(=O)N2CCCC2)C(=O)OC(C)(C)C)C(C)C)ccc1O` [Compound 62, tert-Butyl (R)-2-((S)-2-(2-((E)-3-(4-Hydroxy-3-methoxyphenyl)acrylamido)acetamido)-3-methylbutanamido)-5-oxo-5-(pyrrolidin-1-yl)pentanoate], 1.43 ± 0.01 fold increase; with `COc1cc(/C=C/C(=O)NCC(=O)N[C@H](C(=O)N[C@H](CCC(=O)OC(C)(C)C)C(=O)N(C)OC)C(C)C)ccc1O` [Compound 63, tert-Butyl (R)-4-((S)-2-(2-((E)-3-(4-Hydroxy-3-methoxyphenyl)acrylamido)acetamido)-3-methylbutanamido)-5-(methoxy(methyl)amino)-5-oxopentanoate], 1.36 ± 0.05 fold increase. As for `COc1cc(/C=C/C(=O)NCC(=O)N[C@H](C(=O)N[C@H](CCC(=O)OC(C)(C)C)C(=O)N2CCCC2)C(C)C)ccc1O` [Compound 64, tert-Butyl (R)-4-((S)-2-(2-((E)-3-(4-Hydroxy-3-methoxyphenyl)acrylamido)acetamido)-3-methylbutanamido)-5-oxo-5-(pyrrolidin-1-yl)pentanoate], the “NOD2 activity at 2 μM (fold increase)” value (18 h, mean ± SEM) stood at 1.33 ± 0.03 fold increase. Consider `CCCCCCCCCCCCCCCCCCOC(=O)CC[C@@H](NC(=O)[C@@H](NC(=O)CNC(=O)/C=C/c1ccc(O)c(OC)c1)C(C)C)C(=O)OCCCCCCCCCCCCCCCCCC` [Compound 72, Dioctadecyl ((E)-3-(4-Hydroxy-3-methoxyphenyl)acryloyl)glycyl-L-valyl-D-glutamate], for which the “NOD2 activation (in words)” value is given as “almost completely abrogated the NOD2 agonistic activity”. Moreover, the “NOD2 activity at 2 μM (fold increase)” value (18 h, mean ± SEM) was 1.32 ± 0.02 fold increase. In general, EC50 refers to the midpoint of the concentration-response curve. With `COc1cc(/C=C/C(=O)NCC(=O)N[C@H](C(=O)N[C@H](CCC(=O)OC2CCCC2)C(=O)OC2CCCC2)C(C)C)ccc1OC(C)=O` [Compound 76, Dicyclopentyl ((E)-3-(4-Acetoxy-3-methoxyphenyl)acryloyl)glycyl-L-valyl-D-glutamate], where the note is “18 h, mean ± SEM”, the “NOD2 activity at 2 μM (fold increase)” value came out at 2.67 ± 0.25 fold increase. The EC50 under setting [1] was 0.063 ± 0.0002 µM.

On to `CCCCCCCCCCCC(=O)Oc1ccc(/C=C/C(=O)NCC(=O)N[C@H](C(=O)N[C@H](CCC(=O)OC2CCCC2)C(=O)OC2CCCC2)C(C)C)cc1OC` [Compound 77, Dicyclopentyl ((E)-3-(4-(Dodecanoyloxy)-3-methoxyphenyl)acryloyl)glycyl-L-valyl-D-glutamate], for which, under “18 h, mean ± SEM”, the “NOD2 activity at 2 μM (fold increase)” value amounted to 2.56 ± 0.12 fold increase. Further, the EC50 under setting [1] is 0.243 ± 0.05 µM.

For the compound `CCCCCCCCCCCCCCCCCC(=O)Oc1ccc(/C=C/C(=O)NCC(=O)N[C@H](C(=O)N[C@H](CCC(=O)OC2CCCC2)C(=O)OC2CCCC2)C(C)C)cc1OC` [Compound 78, Dicyclopentyl ((E)-3-(3-Methoxy-4-(stearoyloxy)phenyl)acryloyl)glycyl-L-valyl-D-glutamate], the EC50 came to 6.16 µM. The “NOD2 activity at 2 μM (fold increase)” value (18 h, mean ± SEM) is listed as 1.66 ± 0.11 fold increase. In addition, the EC50 under setting [1] came out at 6.16 ± 1.16 µM. Take `CCCCCCCCCCCCCCCCCC(=O)Oc1ccc(/C=C/C(=O)NCC(=O)N[C@@H](COCc2ccccc2)C(=O)N[C@H](CCC(=O)OCC)C(=O)OCC)cc1OC` [Compound 79, Diethyl O-Benzyl-N-(((E)-3-(3-methoxy-4-(stearoyloxy)phenyl)acryloyl)glycyl)-L-seryl-D-glutamate]: the “NOD2 activity at 2 μM (fold increase)” value (18 h, mean ± SEM) is 1.68 fold increase and 1.68 ± 0.03 fold increase. With `CCCCCCCCCCCCCCCCCC(=O)Oc1ccc(/C=C/C(=O)NCC(=O)N[C@@H](CO)C(=O)N[C@H](CCC(=O)OCC)C(=O)OCC)cc1OC` [Compound 80, Diethyl ((E)-3-(3-Methoxy-4-(stearoyloxy)phenyl)acryloyl)glycyl-L-seryl-D-glutamate], the “NOD2 activity at 2 μM (fold increase)” value (18 h, mean ± SEM) is 1.21 fold increase and 1.21 ± 0.06 fold increase.

Regarding `CCCCCCCCCCCCCCCCCC(=O)NCCCC[C@H](NC(=O)CC[C@@H](NC(=O)[C@@H](NC(=O)CNC(=O)/C=C/c1ccc(O)c(OC)c1)C(C)C)C(=O)OCC)C(=O)OC` [Compound 82, Methyl N^2-((R)-5-Ethoxy-4-((S)-2-(2-((E)-3-(4-hydroxy-3-methoxyphenyl)acrylamido)acetamido)-3-methylbutanamido)-5-oxopentanoyl)-N^6-stearoyl-L-lysinate], the 50% effective concentration (EC50) amounted to 11.5 µM. For the same compound, the “NOD2 activity at 2 μM (fold increase)” value (18 h, mean ± SEM) was 2.00 ± 0.03 fold increase. Besides, the EC50 under setting [1] amounted to 11.5 ± 3.91 µM. Regarding `CCCCCCCCCCCC(=O)O` [lauric acid, reference compound], the “NOD2 activation (in words)” value is “did not show any NOD2 activation alone”. In addition, the “Enhancement of the NOD2 agonistic activity of 1” value (in combination with 1, data not shown) is reported as “did not enhance the NOD2 agonistic activity of 1”.

For the origin of these results see paper PMC8279416, “Structural Fine-Tuning of Desmuramylpeptide NOD2 Agonists Defines Their In Vivo Adjuvant Activity” (Journal of Medicinal Chemistry, 2021).
